Reference: PubChem BioAssay AID2060340 (Molecular Pharmacology Branch, DTP, NCI, 2025)

System: 349418-098-R-PDC spheroids, viability, % test/control
Test: Anticancer human tumor 349418-098-R-PDC patient-derived lung adenocarcinoma cell line growth inhibition [IpAb]
Conditions: spheroids with HUVEC and MSC; for IC50: curve of first compound; for viability, T/C: stronger effect = lower value
From the text: Combinatorial screen of targeted agents with ipatasertib and abemaciclib in multi-cell type tumor spheroids
A high-throughput screen of multi-cell type tumor spheroids was designed to identify active combinations of targeted small molecules and ipatasertib or abemaciclib. Complex spheroids include a stromal component modeled by human endothelial cells (HUVEC) and fibroblasts modeled by human mesenchymal stem cells (MSCs). The concentration ranges selected for each drug and investigational agent were based upon clinically achievable concentrations if the clinical Cmax of the agent was known.
Compounds. The drugs and investigational agents: ipatasertib (NSC767898), abemaciclib(NSC768073), selumetinib (NSC741078), trametinib (758246), adavosertib (NSC754352), everolimus (NSC733504), sapanisertib (NSC764658), vemurafenib (NSC761431), venetoclax (NSC766270), copanlisib (NSC809693), apelisib (NSC765974), palbociblib (NSC758247), vemurafenib (NSC761431), dabrafenib (NSC764134), ravoxertinib (NSC781343), BMS-387032 (NSC767048), sotorasib (NSC818433), talazoparib (NSC767125) and afursertib (NSC778305), were obtained from the National Cancer Institute (NCI) Developmental Therapeutics Program Chemical Repository. The FDA-approved anticancer drug set is available from the NCI Developmental Therapeutics Program. […] The stock solutions were prepared in dimethyl sulfoxide (DMSO, Sigma-Aldrich, St. Louis, MO, cat. D2650) at 800-fold the tested concentration and stored at -70 degrees C prior to their use. All drugs and investigational agents were tested over a range starting from a high concentration at or near the clinical Cmax and decreasing in half-log increments. If the clinical Cmax for an agent had not been determined, the highest concentration tested was 10 microM.
NCI60 Cell Culture. NCI60 cell lines were obtained from the NCI Developmental Therapeutics Program Tumor Repository. For each lot of cells, the Repository performed Applied Biosystems AmpFLSTR Identifiler testing with PCR amplification to confirm consistency with the published Identifier STR profile for each cell line. Cells were kept in continuous culture for no more than 20 passages. The optimal seeding densities for each of the cell lines at each time point assessed were determined prior to performing the concentration response studies. Briefly, the NCI60 human tumor lines were grown as monolayers in RPMI 1640 medium supplemented with 10% FBS and 2 mmol/L L-glutamine.
An additional 9 lines were from the NCI60 cell line panel including MDA-MB-231 breast carcinoma, MDA-MB-468 breast carcinoma, MCF7 breast carcinoma, Hs578T breast carcinoma, MALME-3M melanoma, SK-MEL-2 melanoma, SK-OV-3 ovarian carcinoma, DU-145 prostate carcinoma, PC-3 prostate carcinoma, all cell lines along with major genetic alterations are listed on Table 2. Pooled donor human umbilical vein endothelial cells (HUVEC, Lonza, cat. CC-2519) and human mesenchymal stem cells (hMSC, Lonza, cat. PT-2501) were purchased from Lonza (Walkersville, MD).
PDMR cell lines were grown in complete medium (DC medium): Dulbecco's modified Eagle's medium (DMEM)/F12 supplemented with 5% fetal bovine serum (FBS), 2 mM L-glutamine, 100 U/mL penicillin and 100 µg/ml streptomycin, 0.4 µg/ml hydrocortisone, 10 ng/ml epidermal growth factor (EGF) recombinant human protein, 24 µg/mL adenine, and 0.1 mg/mL primocin. During culture from frozen stock vials, PDMR cells were cultured in the same medium containing 10 µM Y-27632 (see Table 3). The PDCs were cultured in complete DMEM/F12 media without 10 microM Y-27632 dihydrochloride for at least two passages prior to the screen. The pooled donor HUVEC and hMSC were cultured in endothelial cell growth medium 2 (PromoCell, Heidelberg, Germany, cat. C-22011) and mesenchymal stem cell growth medium 2 (PromoCell, cat. C-28009), respectively. For all experiments, HUVEC and hMSC were used at passages </=5.
[…]
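Also: spheroids exposed to compounds for 7 days.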

Structure (SMILES): CC(=O)c1c(C)c2cnc(Nc3ccc(N4CCNCC4)cn3)nc2n(C2CCCC2)c1=O + CCN1CCN(Cc2ccc(Nc3ncc(F)c(-c4cc(F)c5nc(C)n(C(C)C)c5c4)n3)nc2)CC1
- IC50 (second compound 0.01 µM): 6.56 nM
- IC50 (second compound 0.0316 µM): < 0.949 nM
- IC50 (second compound 0.1 µM): < 0.949 nM
- IC50 (second compound 0.316 µM): < 0.949 nM
- IC50 (second compound 1 µM): < 0.949 nM
- viability, T/C (second compound 0.01 µM, first compound 0.000949 µM): 58.4%
- viability, T/C (second compound 0.01 µM, first compound 0.003 µM): 64.5%
- viability, T/C (second compound 0.01 µM, first compound 0.00949 µM): 40.4%
- viability, T/C (second compound 0.01 µM, first compound 0.03 µM): 35.1%
- viability, T/C (second compound 0.01 µM, first compound 0.0949 µM): 19.1%
- viability, T/C (second compound 0.01 µM, first compound 0.3 µM): 15.8%
- viability, T/C (second compound 0.0316 µM, first compound 0.000949 µM): 40.7%
- viability, T/C (second compound 0.0316 µM, first compound 0.003 µM): 38.7%
- viability, T/C (second compound 0.0316 µM, first compound 0.00949 µM): 28.5%
- viability, T/C (second compound 0.0316 µM, first compound 0.03 µM): 23.6%
- viability, T/C (second compound 0.0316 µM, first compound 0.0949 µM): 15.1%
- viability, T/C (second compound 0.0316 µM, first compound 0.3 µM): 15.6%
- viability, T/C (second compound 0.1 µM, first compound 0.000949 µM): 24.8%
- viability, T/C (second compound 0.1 µM, first compound 0.003 µM): 24.8%
- viability, T/C (second compound 0.1 µM, first compound 0.00949 µM): 20.7%
- viability, T/C (second compound 0.1 µM, first compound 0.03 µM): 19.5%
- viability, T/C (second compound 0.1 µM, first compound 0.0949 µM): 16.1%
- viability, T/C (second compound 0.1 µM, first compound 0.3 µM): 14.6%
- viability, T/C (second compound 0.316 µM, first compound 0.000949 µM): 16.8%
- viability, T/C (second compound 0.316 µM, first compound 0.003 µM): 19.6%
- viability, T/C (second compound 0.316 µM, first compound 0.00949 µM): 19%
- viability, T/C (second compound 0.316 µM, first compound 0.03 µM): 16%
- viability, T/C (second compound 0.316 µM, first compound 0.0949 µM): 13.8%
- viability, T/C (second compound 0.316 µM, first compound 0.3 µM): 14.4%
- viability, T/C (second compound 1 µM, first compound 0.000949 µM): 13.4%
- viability, T/C (second compound 1 µM, first compound 0.003 µM): 17.6%
- viability, T/C (second compound 1 µM, first compound 0.00949 µM): 15.1%
- viability, T/C (second compound 1 µM, first compound 0.03 µM): 15%
- viability, T/C (second compound 1 µM, first compound 0.0949 µM): 14.9%
- viability, T/C (second compound 1 µM, first compound 0.3 µM): 13.9%

Structure (SMILES): CC(C)n1nc(-c2ccc3oc(N)nc3c2)c2c(N)ncnc21 + CC(C)NCC(C(=O)N1CCN(c2ncnc3c2C(C)CC3O)CC1)c1ccc(Cl)cc1
- IC50 (second compound 0.1 µM): 0.681 nM
- IC50 (second compound 0.316 µM): < 0.316 nM
- IC50 (second compound 1 µM): < 0.316 nM
- IC50 (second compound 3.16 µM): < 0.316 nM
- IC50 (second compound 10 µM): < 0.316 nM
- viability, T/C (second compound 0.1 µM, first compound 0.000316 µM): 69.4%
- viability, T/C (second compound 0.1 µM, first compound 0.001 µM): 40.3%
- viability, T/C (second compound 0.1 µM, first compound 0.00316 µM): 14.5%
- viability, T/C (second compound 0.1 µM, first compound 0.01 µM): 7.8%
- viability, T/C (second compound 0.1 µM, first compound 0.0316 µM): 6.65%
- viability, T/C (second compound 0.1 µM, first compound 0.1 µM): 6.26%
- viability, T/C (second compound 0.316 µM, first compound 0.000316 µM): 31.8%
- viability, T/C (second compound 0.316 µM, first compound 0.001 µM): 17.4%
- viability, T/C (second compound 0.316 µM, first compound 0.00316 µM): 8.31%
- viability, T/C (second compound 0.316 µM, first compound 0.01 µM): 5.95%
- viability, T/C (second compound 0.316 µM, first compound 0.0316 µM): 5.66%
- viability, T/C (second compound 0.316 µM, first compound 0.1 µM): 5.5%
- viability, T/C (second compound 1 µM, first compound 0.000316 µM): 14.4%
- viability, T/C (second compound 1 µM, first compound 0.001 µM): 8.54%
- viability, T/C (second compound 1 µM, first compound 0.00316 µM): 5.9%
- viability, T/C (second compound 1 µM, first compound 0.01 µM): 4.87%
- viability, T/C (second compound 1 µM, first compound 0.0316 µM): 5.35%
- viability, T/C (second compound 1 µM, first compound 0.1 µM): 4.7%
- viability, T/C (second compound 3.16 µM, first compound 0.000316 µM): 10.7%
- viability, T/C (second compound 3.16 µM, first compound 0.001 µM): 6.81%
- viability, T/C (second compound 3.16 µM, first compound 0.00316 µM): 5.04%
- viability, T/C (second compound 3.16 µM, first compound 0.01 µM): 4.7%
- viability, T/C (second compound 3.16 µM, first compound 0.0316 µM): 4.32%
- viability, T/C (second compound 3.16 µM, first compound 0.1 µM): 5.98%
- viability, T/C (second compound 10 µM, first compound 0.000316 µM): 6.8%
- viability, T/C (second compound 10 µM, first compound 0.001 µM): 5.96%
- viability, T/C (second compound 10 µM, first compound 0.00316 µM): 5.29%
- viability, T/C (second compound 10 µM, first compound 0.01 µM): 3.92%
- viability, T/C (second compound 10 µM, first compound 0.0316 µM): 4.43%
- viability, T/C (second compound 10 µM, first compound 0.1 µM): 4.42%
